Measurements reported in publication PMC10913484, “Hydroxyhexylitaconic acids as potent IMP-type metallo-β-lactamase inhibitors for controlling carbapenem resistance in Enterobacterales” (Microbiology Spectrum, 2024).
≈ marks a conversion by molar mass, not a printed value.

Columns and labels:
E. coli DH5α pCL-SMB-1 = experiment: Susceptibility test (microdilution), transformant; assay type: cell-based; details: for MPM MIC: E. coli DH5α pCL-SMB-1
Protocol: Susceptibility testing, based on the microdilution method, was performed according to the guidelines of the Clinical and Laboratory Standards Institute ([36]).

IMP-1 [1] = molecular target: T1, IMP-1 (Serratia marcescens, UniProt P52699); assay type: biochemical; details: IMP-1 with agent (5 mM stock), dialysis
T1 construct: made in house
T1 sequence (P52699 19-246, looked up, species assumed): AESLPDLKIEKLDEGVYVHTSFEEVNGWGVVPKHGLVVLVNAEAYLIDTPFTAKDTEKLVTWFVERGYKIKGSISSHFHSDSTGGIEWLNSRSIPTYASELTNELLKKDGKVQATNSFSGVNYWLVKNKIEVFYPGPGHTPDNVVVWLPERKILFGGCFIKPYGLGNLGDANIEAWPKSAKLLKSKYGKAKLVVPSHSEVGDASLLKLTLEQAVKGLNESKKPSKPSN
Protocol: A total of 5 µL of IMP-1 (100 µM) and 2 µL of EDTA (5 mM) or HHIA (5 mM) were mixed in 100 µL of 20 mM HEPES buffer (pH 7.5) pretreated with Chelex 100 resin (Bio-Rad) and incubated on ice for 30 min. The samples were dialyzed against ultrapure water at 4°C for 6 h using Slide-A-Lyzer Dialysis Cassettes (cutoff, 3.5 K) (Thermo Fisher Scientific) and treated with proteinase K (FUJIFILM Wako Pure Chemical Corporation) at 37°C for 1 h. The zinc concentration in the samples was determined using a Zinc Assay Kit (MG Metallogenics).

[2] = tested on: IMP-1-producing E. coli NUBL-24; experiment: Time-killing assay; assay type: cell-based; details: 12-h incubation; for Time-kill: effect on growth, HHIA alone: 50 µg/mL alone; for Time-kill: MPM-HHIA combination: MPM 1 µg/mL + HHIA 50 µg/mL
Protocol: The initial density of IMP-1-producing E. coli NUBL-24 (MPM MIC, 8 µg/mL) was adjusted to approximately 5 × 10^6 colony-forming units (cfu)/mL. Either MPM (1 µg/mL) or 9-HHIA/10-HHIA (50 µg/mL) alone or a combination of the two was added to the bacterial solution, and then incubation was performed at 37°C. LB broth containing bacteria alone was used as a control. At 0, 2, 4, 8, and 12 h after adding the agents, an aliquot of the bacterial culture was removed, diluted, and spotted on LB agar plates to count the viable bacterial cells. The detection limit was set at 333 cfu/mL.

IMP-1 [3] = molecular target: T1, IMP-1; assay type: binding; details: DSF; control protein 52.5°C
Protocol: The DSF assay was performed using the Protein Thermal Shift Dye Kit (Thermo Fisher Scientific) and StepOnePlus Real-Time PCR Systems (Applied Biosystems) as follows: 2 µL of IMP-1 enzyme (100 µM), 1 µL of EDTA or HHIA solution (5 mM), 2.5 µL of diluted Protein Thermal Shift Dye (32×), 5 µL of Protein Thermal Shift buffer, and 9.5 µL of water were mixed in a test tube and incubated for 15 min at 4°C. Four replicates of each sample were performed. The fluorescence was monitored at 0.7°C increments from 4°C to 99°C. The relative fluorescence units were fitted with the Boltzmann equation using the TSA-CRAFT software to determine the melting point (Tm) ([47]).

C=C(C(=O)O)C(CCCCC(C)O)C(=O)O (stereo not shown) [9-HHIA, 9-hydroxyhexylitaconic acid] was tested, and the “MPM MIC” value (E. coli DH5α pCL-SMB-1; +agent 25 μg/mL) was 32 µg/mL, the “MPM MIC” value (E. coli DH5α pCL-SMB-1; +agent 100 μg/mL) was 32 µg/mL and the “Zinc ions in IMP-1 after treatment” value (IMP-1 [1]) was “did not cause a significant loss of zinc ions”. For the same compound, the “Time-kill: effect on growth, HHIA alone” value [2] was “did not affect the growth”, the “Time-kill: MPM-HHIA combination” value [2] was “did not permit the re-growth” and the “Melting temperature (Tm) of treated IMP-1” value (IMP-1 [3]) was 54.9 °C.
In the case of C=C(C(=O)O)C(CCCCCCO)C(=O)O (stereo not shown) [10-HHIA, 10-hydroxyhexylitaconic acid], the “MPM MIC” value (E. coli DH5α pCL-SMB-1; +agent 25 μg/mL) is reported as 32 µg/mL, the “MPM MIC” value (E. coli DH5α pCL-SMB-1; +agent 100 μg/mL) is reported as 32 µg/mL and the MIC (E. coli DH5α pCL-SMB-1; Escherichia coli, read-out: MPM MIC) is reported as 32 µg/mL (≈ 139 µM). For the same compound, the “Zinc ions in IMP-1 after treatment” value (IMP-1 [1]) was “did not cause a significant loss of zinc ions”, the “Time-kill: effect on growth, HHIA alone” value [2] was “did not affect the growth” and the “Time-kill: MPM-HHIA combination” value [2] was “did not permit the re-growth”. The “Melting temperature (Tm) of treated IMP-1” value (IMP-1 [3]) was 55.6 °C.
